Assay: Toxicity, LD50
Details: in vivo

Cn1cnc2c1c(=O)[nH]c(=O)n2C [theobromine, reference compound] showed an LD50 of 1260 mg/kg.
